From patent US20210093582A1, “COMPOSITIONS FOR REDUCING TRIMETHYLAMINE-N-OXIDE AND RELATED THERAPEUTIC APPLICATIONS” (priority 2019, published 2021)

What was measured:
Type in all cases: in vivo, C57BL/6 (B6) mice
VCAM-1 = experiment: Aortic vascular inflammation gene expression by qPCR (VCAM-1); conditions: female B6 mice, 1.3% carnitine water, 6 weeks; mRNA normalized to GAPDH
Description: (§1) Six-week-old female C57BL/6 (B6) mice were purchased from BioLASCO (Taipei, Taiwan) and were acclimatized for 1 week. Mice were fed ad libitum with experimental diets, LabDiet Rodent 5001. The animal use protocol listed below has been reviewed and approved by the Institutional Animal Care and Use Committee (NTU105-EL-00115). In the experiment, mice were randomly divided into four groups: normal diet, 1.3% carnitine water, 1.3% carnitine water with 0.05% pterostilbene diet (around 250 mg/kg/day), and 1.3% carnitine water with antibiotic cocktail for 6 weeks. Mice received a cocktail of oral antibiotics (vancomycin 500 mg/L, metronidazole 1 g/L, neomycin 1 g/L, and ampicillin 1 g/L in drinking water) for 6 weeks. […] At the end of the six-week study, mice were euthanized by CO2 asphyxiation.
(§2) Hepatic and aortic RNA was extracted using TRIzol reagent. Phase separation was performed by adding 200 μl chloroform/1 mlTRIzol. […]
(§3) Quality of RNA and RNA concentrations were then quantified using NanoDrop 1000 spectrophotometer. […]
(§4) mRNA levels were determined by quantitative real-time PCR usingStepOnePlus Real-Time PCR system and SYBR Green master mix as compared to constitutively expressed gene (GAPDH) using the relative quantification method (ΔΔCt), Primer sequences for SYBR Green reactions were designed and synthesized by Mission Biotech.

TNF-α = experiment: Aortic vascular inflammation gene expression by qPCR (TNF-α); conditions: female B6 mice, 1.3% carnitine water, 6 weeks; mRNA normalized to GAPDH
Description: as §1, §2, §3, §4

E-selectin = experiment: Aortic vascular inflammation gene expression by qPCR (E-selectin); conditions: female B6 mice, 1.3% carnitine water, 6 weeks; mRNA normalized to GAPDH
Description: as §1, §2, §3, §4

[1] = Plasma TMAO level by LC-MS/MS; conditions: female B6 mice, 1.3% carnitine water, 6 weeks
Description: as §1
LC-MS/MS was used to quantify plasma L-carnitine and TMAO in positive MRM mode, with the instrument water UPLC system (Acquity, Waters, Mildford, Mass., USA) and triple quadrupole mass spectrometer (TQS, Waters Micromass, Manchester, UK). […]
The MS parameters were set as follow: 100° C. for the source temperature, 650° C. for the desolvation temperature, 2 L/h for the cone gas flow, 600 L/h for the desolvation gas flow and 1500 V for the capillary voltage. Cone voltage was set a 10 V. Concentrations of each analyte in samples were determined by calibration curves.

cecal microbiota = experiment: Cecal microbiota composition by 16S rRNA gene sequencing; conditions: mouse cecum, 6 weeks
Description: as §1
Microbial community composition was assessed by pyrosequencing 16S rRNA genes derived from mouse cecum (n=3 for each group). Total DNA was isolated and purified using InnuSPEED Stool DNA kit according to the manufacturer's instructions. The quality of DNA samples was assessed by NanoDrop 1000 spectrophotometer. DNA samples were sent to Biotools Co., Ltd.for 16S rRNA gene amplification, sequence library construction and sequencing. […] The library DNA was sequenced by IlluminaHiSeq2500 platform, and paired-end reads (250 bp) were generated.

FMO3 = experiment: Hepatic FMO3 mRNA expression by RT-qPCR; conditions: female B6 mice, 6 weeks; normalized to GAPDH
Description: as §1, §2, §3, §4

C[N+](C)(C)C[C@H](O)CC(=O)[O-] [Carnitine, L-carnitine]
expression of VCAM-1 in aortas (VCAM-1): significantly enhanced | expression of TNF-α in aortas (TNF-α): significantly enhanced | expression of E-selectin in aortas (E-selectin): significantly enhanced | increase in circulating TMAO level compared to ND group [1]: up to 8 folds | Erysipelotrichia (Turibacter) proportion / relative abundance (cecal microbiota): increase | hepatic FMO3 mRNA expression level (FMO3): approximately three-fold increase
